{
  "source": "patent US10766866B2",
  "about": "“Deterrents for arthropods and marine organisms” (priority 2017, dated 2020)",
  "key": {"[1]": {"tested_on": "Anopheles gambiae mosquito isoform A OctR (AgAOctR)", "experiment": "OctR activation, change in intracellular calcium", "assay_type": "cell-based", "conditions": "AgAOctR over Homo sapien α2-AR subtypes", "description": "(§1) Functional expression of cloned arthropod OctRs and human α2-ARs: The cDNAs for α-like OctRs from different arthropod species (e.g., Anopheles gambiae, Aedes aegypti, Periplaneta americana, Drosophila melanogaster, Ixodes scapularis, Balanus improvises) and for α2-AR subtypes from humans were individually subcloned into mammalian expression vectors. These plasmids, which harbor a resistance gene for the selection drug G418 and the cDNA sequence for the receptor of interest, were individually transfected into mammalian cells using a calcium phosphate precipitation method. G418 selection was then employed to generated stable clonal cell lines. Utilizing rapid filtration radioligand binding techniques, the cell surface density of receptor expression of the individual clonal cell lines was determined at equilibrium and those with similar high levels of expression were selected for further experiments. Briefly, binding conditions were 50 mM Tris binding buffer pH 7.4 at 25° C. and an ice-cold wash buffer 10 mM Tris-HCl, pH 7.4). The radioligand was [3H]rauwolscine and non-specific binding was determined in the presence of 10 μM atipamezole. Following the addition of membranes prepared from the clonal cell lines, samples were mixed and allowed 2 hr. to reach equilibrium before rapid filtration and washing through 0.3% PEI-treated GF/C filters. The radioactivity remaining on the filters was quantified by scintillation counting. Receptor density (Bmax) was back calculated knowing the specific activity of the radioligand and applying the equation for a square hyperbola model: Bmax=(Y·(KD+X))/X, where Y is [specifically bound radioligand] and X=[radio ligand concentration]. The affinity (KD) for the radioligand for each receptor was determined in separate saturation isotherm binding experiments using the same binding conditions as describe above.\n(§2) Measurement of OctR activation by measuring changes in intracellular calcium: Activation of arthropod α-like OctRs increases intracellular calcium via a Gq-coupling mechanism. This involves activation of phospholipase C leading to an increase in intracellular inositol triphosphate (IP3) which then activates IP3-gated calcium channels in the endoplasmic reticulum causing a transient rise in intracellular calcium. These changes in intracellular calcium upon OctR activation were measured by loading cells with intracellular calcium sensitive dye CALCIUM 6QR and reading the change in calcium-induced fluorescent signal over time on a FlexStation 3 microplate reader."}, "[2]": {"tested_on": "Ixodes scapularis tick OctR (IsTOctR)", "experiment": "OctR activation, change in intracellular calcium", "assay_type": "cell-based", "conditions": "Ixodes tick OctR over Homo sapien α2-AR subtypes", "description": "as §1, §2"}, "[3]": {"tested_on": "Periplaneta americana OctR (PaOctR)", "experiment": "OctR activation, change in intracellular calcium", "assay_type": "cell-based", "conditions": "Periplaneta cockroach OctR over Homo sapien α2-AR subtypes", "description": "as §1, §2"}, "Balanus OctR (BiOctR)": {"tested_on": "Balanus OctR (BiOctR)", "experiment": "OctR activation, change in intracellular calcium", "assay_type": "cell-based, Balanus improvises", "conditions": "Balanus barnacle OctR over Homo sapien α2-AR subtypes", "description": "as §1, with “Briefly, binding conditions were 50 mM Tris binding buffer pH 7.4 at 25° C. and an ice-cold wash buffer 10 mM Tris-HCl, pH 7.4).” left out, “Following the addition of membranes prepared from the clonal cell lines, samples were mixed and allowed 2 hr. to reach equilibrium before rapid filtration and washing through 0.3% PEI-treated GF/C filters.” left out, “The affinity (KD) for the radioligand for each receptor was determined in separate saturation isotherm binding experiments using the same binding conditions as describe above.” left out"}, "[4]": {"molecular_target": "T1, AgAOctR (Anopheles octopamine receptor isoform A), cloned α-like OctR (Anopheles gambiae, UniProt Q7PRZ8)", "T1 construct": "Gq calcium readout", "T1 sequence (Q7PRZ8 1-592)": "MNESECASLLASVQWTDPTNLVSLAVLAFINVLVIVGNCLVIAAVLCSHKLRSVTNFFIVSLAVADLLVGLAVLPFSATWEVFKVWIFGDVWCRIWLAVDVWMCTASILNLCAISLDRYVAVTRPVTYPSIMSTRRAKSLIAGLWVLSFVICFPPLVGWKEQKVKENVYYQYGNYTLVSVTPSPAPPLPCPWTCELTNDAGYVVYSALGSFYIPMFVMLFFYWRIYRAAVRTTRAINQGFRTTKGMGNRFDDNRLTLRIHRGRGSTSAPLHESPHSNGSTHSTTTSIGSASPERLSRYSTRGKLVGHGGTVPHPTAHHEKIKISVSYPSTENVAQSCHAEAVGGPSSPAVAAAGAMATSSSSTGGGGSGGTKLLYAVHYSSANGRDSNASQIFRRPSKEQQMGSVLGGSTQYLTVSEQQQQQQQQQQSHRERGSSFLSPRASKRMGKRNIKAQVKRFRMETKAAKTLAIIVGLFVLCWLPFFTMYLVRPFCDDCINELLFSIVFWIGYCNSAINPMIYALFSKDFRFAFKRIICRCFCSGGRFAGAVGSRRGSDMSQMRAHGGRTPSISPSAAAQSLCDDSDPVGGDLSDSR", "experiment": "OctR activation: change in intracellular calcium (CALCIUM 6QR dye, FlexStation 3) in stably transfected mammalian cells", "assay_type": "cell-based", "conditions": "agonist", "outline": "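Calcium flux readout: CALCIUM 6QR fluorescence vs time, FlexStation 3. Cells = G418-selected stable clones, receptor Bmax matched by [3H]rauwolscine binding (pH 7.4, 25 °C, 2 hr).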"}, "[5]": {"tested_on": "IsTOctR (Ixodes octopamine receptor), cloned α-like OctR", "experiment": "OctR activation: change in intracellular calcium (CALCIUM 6QR dye, FlexStation 3) in stably transfected mammalian cells", "assay_type": "cell-based, Ixodes scapularis", "conditions": "agonist, read-out: IsTOctR (Ixodes octopamine receptor) EC50", "description": "as §1, §2"}, "[6]": {"tested_on": "AeOctR (Aedes octopamine receptor), cloned α-like OctR", "experiment": "OctR activation: change in intracellular calcium (CALCIUM 6QR dye, FlexStation 3) in stably transfected mammalian cells", "assay_type": "cell-based, Aedes aegypti", "conditions": "agonist", "description": "as §1, §2"}, "Aedes mosquito": {"tested_on": "Aedes mosquito", "experiment": "Protection against mosquito biting and toxicity to mosquitoes", "assay_type": "in vivo"}, "Volatility": {"experiment": "Volatility", "assay_type": "physicochemical"}},
  "data": [
    {"smiles": "C=C(c1cnc[nH]1)c1cccc(C)c1C", "note": "[AZ0027]", "values": [
      {"measurement": "selectivity Ki(Hsα2-AR)/EC50(OctR)", "setting": "[1]", "value": "highly selective"},
      {"measurement": "selectivity Ki(Hsα2-AR)/EC50(OctR)", "setting": "[2]", "value": "highly selective"},
      {"measurement": "selectivity Ki(Hsα2-AR)/EC50(OctR)", "setting": "[3]", "value": "highly selective"},
      {"measurement": "selectivity Ki(Hsα2-AR)/EC50(OctR)", "setting": "Balanus OctR (BiOctR)", "value": "highly selective"},
      {"measurement": "EC50", "setting": "[4]", "value": "0.013 ± 0.0046", "unit": "nM"},
      {"measurement": "EC50", "setting": "[5]", "value": "0.51 ± 0.28", "unit": "nM"},
      {"measurement": "EC50", "setting": "[6]", "value": "12 ± 3.2", "unit": "nM"},
      {"measurement": "protection against mosquito biting", "setting": "Aedes mosquito; Aedes mosquito", "value": "protects against Aedes mosquito biting"},
      {"measurement": "toxicity to mosquitoes", "setting": "Aedes mosquito; DEET: at the lowest concentration that produces maximal protection against biting (LC50)", "value": "non-toxic to mosquitoes"},
      {"measurement": "potency relative to DEET", "setting": "Aedes mosquito; protection against mosquito biting", "value": "over 500 fold"},
      {"measurement": "volatility", "setting": "Volatility", "value": "low volatility"}
    ]}
  ]
}
